Results taken from patent publication US7678395B2, “Stimulation of hair growth by isoginkgetin” (Osteoscreen, Inc., priority 2003, dated 2010).
Where a SMILES comes first, the peptide text is derived from it. The star is where a group is joined. Cbz = O=C(OCc1ccccc1)*; OtBu = CC(C)(C)O*

Experiments:
20S proteasome = target: T1, 20S proteasome (Mus musculus, UniProt O55234); assay: Proteasome inhibition assay, compounds added directly to 20S proteasome preparation (LLVY-AMC cleavage); format: biochemical; details: 20S proteasome preparations from packed whole blood of mice, FIG. 2A
T1 construct: 20S proteasome preparations from packed whole blood of mice; from tissue; host or cells: packed whole blood of mice (EDTA lysate supernatant)
Procedure: If packed whole blood is used as a source for proteasomes, 1 ml blood collected in heparinized microtainer tubes is diluted 1:1 (v/v) with saline and centrifuged at 500×g (Sorvall RT 6000D, rotor H-1000B at 1500 rpm) for 5 min at room temperature. The supernatant is removed and the PWB pellet resuspended in 1 ml PBS and microcentrifuged at 6600×g (Eppendorf 5415C at 7000 rpm) for 10 min at room temperature. The supernatant is removed and the PWB pellet is then frozen at −70° C. prior to proteasome analysis.
To prepare the proteasomes, WBC or RBC or PWB 1:1 (v/v) are lysed using 5 mM EDTA, pH 8.0 for 30 min and centrifuged at 15,000×g (Eppendorf 5415C at 14,000 rpm) for 10 min at room temperature. The supernatant containing proteasomes is placed on ice and the protein concentration is determined. […]
(§1) For the assay, 50 μl sample—i.e., 20 proteasome; or standard; or ˜50 μg/μl WBC; or ˜500 μg/μl RBC or ˜1000 μg/μl PWB samples some containing test compounds is added to 50 μl substrate buffer (20 mM HEPES, 0.5 mM EDTA, 0.05% SDS, and 120 μM LLVY-AMC; pH 8.0) in a 96-well black fluorescence plate. The reaction is measured with a fluorescence spectrophotometer (excitation max.: 380 nm; emission max.: 440 nm, and velocity of reaction determined. As shown, the substrate is Leu-Leu-Val-Tyr-AMC. AMC is amido-4-methylcoumarin. […]

C57 male black mice = assay: Stimulation of hair growth on shaved dorsal trunk, topical application; format: in vivo; details: 5 days, 1% OSA (100 μl) or 10% isoginkgetin (50 μl), after 17 days and 26 days, FIGS. 3A and 3B
Procedure: C57 male black mice, 8 weeks old, were acclimated for 7 days in individual cages and fed standard diets and water ad libitum. The mice were anesthetized prior to manipulation. The dorsal trunk of each mouse was shaved and then treated topically starting the following day with a 1.0% solution of OSA (100 μl) which was applied for each of 5 days. A similar protocol was followed using 50 μl solution of isoginkgetin at percentages of 1, 5 and 10% wt/wt. The progression of hair growth is monitored visually and photographed.
FIGS. 3A and 3B show the results for 1% OSA or 10% isoginkgetin after 17 days and 26 days respectively.

[1] = target: T2, proteasomes of red blood cells (Mus musculus, UniProt O55234); assay: Proteasome inhibition assay, red blood cells treated with compounds, then proteasomes isolated and protease activity assessed; format: cell-based; details: red blood cells treated first, then proteasomes isolated; OSA compared with isoginkgetin; FIG. 2B
T2 construct: endogenous in cells; host or cells: red blood cells
Procedure: If RBC are used, the RBC pellet obtained in the process of obtaining WBC described above is recovered and washed with 3 ml PBS, then centrifuged at 500×g (Sorvall RT 6000D, rotor H-1000B at 1500 rpm) for 5 min at room temperature. The supernatant is removed and the RBC pellet resuspended in 1 ml PBS and microcentrifuged at 6600×g (Eppendorf 5415C at 7000 rpm) for 10 min at room temperature. The supernatant is again removed and the RBC pellet is then frozen at −70° C. prior to proteasome analysis.
To prepare the proteasomes, WBC or RBC or PWB 1:1 (v/v) are lysed using 5 mM EDTA, pH 8.0 for 30 min and centrifuged at 15,000×g (Eppendorf 5415C at 14,000 rpm) for 10 min at room temperature. The supernatant containing proteasomes is placed on ice and the protein concentration is determined.
as §1

Structure (SMILES): CC[C@H](C)[C@H](NC(=O)OCc1ccccc1)C(=O)N[C@@H](CCC(=O)OC(C)(C)C)C(=O)N[C@@H](C)C(=O)N[C@H](C=O)CC(C)C [OSA] (Cbz-IE(OtBu)AL-aldehyde)
- inhibition of the Vmax of the proteolytic cleavage of the LLVY-AMC substrate (20S proteasome): similarly inhibit the Vmax
- growth of hair in the dorsal area as compared to control (C57 male black mice): stimulate the growth of hair
- proteasome inhibition when red blood cells are treated with the compounds [1]: more effective
